The text below walks through data of patent US10011607B2, “Ethynyl derivatives” (Hoffmann-La Roche Inc., priority 2015, dated 2018).

The assay has as its target human mGlu4 receptor (Homo sapiens (Human), UniProt Q14833). Put plainly: Ca2+ mobilization in vitro assay on recombinant human mGlu4 expressed in HEK293 cells (PAM). The format is cell-based. The note with it: for Emax: HEK293, maximal response in % of maximal stimulatory effect of saturating L-AP4, read-out: Eff. (%); for EC50: HEK293 cells, human mGlu4, in presence of EC20 of L-AP4, read-out: EC50 (nM) mGlu4PAM. Summed up: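 HEK293 cells stably expressing human mGlu4 at low level, Fluo-4AM loaded; compound (11 half-log dilutions) pre-incubated 10–30 min at 37 °C, then L-AP4 added at EC20 (determined daily). Peak fluorescence minus basal, normalized to saturating L-AP4; EC50, Hill slope and % Emax from four-parameter fit.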
A general note: Calcium flux is commonly read through the fluorescence of an indicator in the cells.

Chain of human mGlu4 receptor (Q14833 33-912): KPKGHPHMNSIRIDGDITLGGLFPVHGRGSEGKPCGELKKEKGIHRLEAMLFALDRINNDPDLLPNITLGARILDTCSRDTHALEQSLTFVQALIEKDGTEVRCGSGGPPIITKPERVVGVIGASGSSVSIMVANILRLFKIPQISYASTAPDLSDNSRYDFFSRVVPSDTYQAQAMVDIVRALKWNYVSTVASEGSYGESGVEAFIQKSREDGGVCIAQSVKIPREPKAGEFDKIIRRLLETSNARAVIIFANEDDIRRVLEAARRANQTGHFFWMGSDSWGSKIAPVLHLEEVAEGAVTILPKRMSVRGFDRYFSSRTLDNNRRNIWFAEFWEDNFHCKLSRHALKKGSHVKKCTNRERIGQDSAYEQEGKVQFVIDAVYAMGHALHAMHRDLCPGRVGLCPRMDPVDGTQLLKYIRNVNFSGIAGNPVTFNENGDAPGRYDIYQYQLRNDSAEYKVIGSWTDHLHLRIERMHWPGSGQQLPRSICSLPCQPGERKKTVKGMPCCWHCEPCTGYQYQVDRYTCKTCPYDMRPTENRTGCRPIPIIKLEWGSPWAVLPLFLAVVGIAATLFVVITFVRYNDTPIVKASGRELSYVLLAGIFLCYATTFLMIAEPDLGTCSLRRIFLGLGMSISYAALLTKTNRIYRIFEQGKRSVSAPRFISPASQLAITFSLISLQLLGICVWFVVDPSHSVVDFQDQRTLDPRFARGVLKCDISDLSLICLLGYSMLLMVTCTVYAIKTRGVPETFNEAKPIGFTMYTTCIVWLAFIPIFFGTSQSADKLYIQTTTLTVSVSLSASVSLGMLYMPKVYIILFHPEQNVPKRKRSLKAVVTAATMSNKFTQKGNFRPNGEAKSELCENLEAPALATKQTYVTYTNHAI

Regarding `C[C@@]12CC(=O)N(c3c(F)cc(C#Cc4ccccc4)cc3F)C(=O)N1CCN(c1cnc(OCc3ccccc3)nc1)C2=O` [Example 41, (9aS)-2-(2-benzyloxypyrimidin-5-yl)-7-[2,6-difluoro-4-(2-phenylethynyl)phenyl]-9a-methyl-4,9-dihydro-3H-pyrazino[1,2-c]pyrimidine-1,6,8-trione], the Emax was determined as 99% and the half-maximal effective concentration (EC50) came out at 81 nM.

For the molecule `Cn1cc(N2CCN3C(=O)N(c4c(F)cc(C#Cc5ccccc5)cc4Cl)C(=O)CC3(C)C2=O)cn1` (racemic) [Example 77, (9aRS)-7-[2-chloro-6-fluoro-4-(2-phenylethynyl)phenyl]-9a-methyl-2-(1-methylpyrazol-4-yl)-4,9-dihydro-3H-pyrazino[1,2-c]pyrimidine-1,6,8-trione], the Emax turned out to be 111% and the EC50 was 104 nM.

With `Cn1nccc1CN1CCN2C(=O)N(c3c(F)cc(C#Cc4ccccc4)cc3F)C(=O)C[C@@]2(C)C1=O` [Example 97, (9aS)-7-[2,6-difluoro-4-(2-phenylethynyl)phenyl]-9a-methyl-2-[(2-methylpyrazol-3-yl)methyl]-4,9-dihydro-3H-pyrazino[1,2-c]pyrimidine-1,6,8-trione], the Emax amounted to 128% and the EC50 came to 76 nM.

As to `CC12CC(=O)N(c3c(F)cc(C#Cc4ccccc4)cc3F)C(=O)N1CCN(c1ccccn1)C2=O` (racemic) [Example 4, (9aRS)-7-[2,6-difluoro-4-(2-phenylethynyl)phenyl]-9a-methyl-2-(2-pyridyl)-4,9-dihydro-3H-pyrazino[1,2-c]pyrimidine-1,6,8-trione], the Emax turned out to be 110% and the EC50 came to 119 nM.

With `CC12CC(=O)N(c3c(F)cc(C#Cc4ccccc4)cc3F)C(=O)N1CCN(c1nc(C(F)(F)F)cs1)C2=O` (racemic) [Example 56, (9aRS)-7-[2,6-difluoro-4-(2-phenylethynyl)phenyl]-9a-methyl-2-[4-(trifluoromethyl)thiazol-2-yl]-4,9-dihydro-3H-pyrazino[1,2-c]pyrimidine-1,6,8-trione], the Emax came out at 88% and the EC50 stood at 166 nM.

As to `Cc1cccc(CN2CCN3C(=O)N(c4c(F)cc(C#Cc5ccccc5)cc4F)C(=O)CC3(C)C2=O)c1` (racemic) [Example 83, (9aRS)-7-[2,6-difluoro-4-(2-phenylethynyl)phenyl]-9a-methyl-2-(m-tolylmethyl)-4,9-dihydro-3H-pyrazino[1,2-c]pyrimidine-1,6,8-trione], the Emax amounted to 79% and the EC50 is 173 nM.

On to `Cn1cc(N2CCN3C(=O)N(c4c(F)cc(C#Cc5ccccc5)cc4F)C(=O)C[C@@]3(C)C2=O)ccc1=O` [Example 24, (9aS)-7-[2,6-difluoro-4-(2-phenylethynyl)phenyl]-9a-methyl-2-(1-methyl-6-oxo-3-pyridyl)-4,9-dihydro-3H-pyrazino[1,2-c]pyrimidine-1,6,8-trione], for which the Emax worked out at 103% and the EC50 is 128 nM.

`CC12CC(=O)N(c3c(F)cc(C#Cc4ccccc4)cc3F)C(=O)N1CCN(c1ncc(C(F)(F)F)s1)C2=O` (racemic) [Example 57, (9aRS)-7-[2,6-difluoro-4-(2-phenylethynyl)phenyl]-9a-methyl-2-[5-(trifluoromethyl)thiazol-2-yl]-4,9-dihydro-3H-pyrazino[1,2-c]pyrimidine-1,6,8-trione]: the Emax was 103% and the EC50 was 108 nM.

Regarding `Cc1cncc(C)c1N1CCN2C(=O)N(c3c(F)cc(C#Cc4ccccc4)cc3F)C(=O)C[C@@]2(C)C1=O` [Example 17, (9aS)-7-[2,6-difluoro-4-(2-phenylethynyl)phenyl]-2-(3,5-dimethyl-4-pyridyl)-9a-methyl-4,9-dihydro-3H-pyrazino[1,2-c]pyrimidine-1,6,8-trione], the Emax is 136% and the EC50 came out at 201 nM.

For `O=C1C2CC(=O)N(c3c(F)cc(C#Cc4ccccc4)cc3F)C(=O)N2CCN1c1ccccn1` (racemic) [Example 3, (9aRS)-7-[2,6-difluoro-4-(2-phenylethynyl)phenyl]-2-(2-pyridyl)-3,4,9,9a-tetrahydropyrazino[1,2-c]pyrimidine-1,6,8-trione], the Emax stood at 116% and the half-maximal effective concentration (EC50) stood at 235 nM.

Regarding `Cc1nccc(N2CCN3C(=O)N(c4c(F)cc(C#Cc5ccccc5)cc4F)C(=O)C[C@@]3(C)C2=O)n1` [Example 31, (9aS)-7-[2,6-difluoro-4-(2-phenylethynyl)phenyl]-9a-methyl-2-(2-methylpyrimidin-4-yl)-4,9-dihydro-3H-pyrazino[1,2-c]pyrimidine-1,6,8-trione], the Emax was 91% and the EC50 is 88 nM.

As for `Cc1cc(N2CCN3C(=O)N(c4c(F)cc(C#Cc5ccccc5)cc4F)C(=O)CC3(C)C2=O)ccn1` (racemic) [Example 11, (9aRS)-7-[2,6-difluoro-4-(2-phenylethynyl)phenyl]-9a-methyl-2-(2-methyl-4-pyridyl)-4,9-dihydro-3H-pyrazino[1,2-c]pyrimidine-1,6,8-trione], the Emax amounted to 119% and the EC50 turned out to be 214 nM.

Consider `CC12CC(=O)N(c3c(F)cc(C#Cc4ccccc4)cc3F)C(=O)N1CCN(Cc1cccnc1)C2=O` (racemic) [Example 93, (9aRS)-7-[2,6-difluoro-4-(2-phenylethynyl)phenyl]-9a-methyl-2-(3-pyridylmethyl)-4,9-dihydro-3H-pyrazino[1,2-c]pyrimidine-1,6,8-trione], for which the Emax worked out at 90% and the EC50 turned out to be 217 nM.

Take `Cc1csc(N2CCN3C(=O)N(c4c(F)cc(C#Cc5ccccc5)cc4F)C(=O)CC3(C)C2=O)n1` (racemic) [Example 54, (9aRS)-7-[2,6-difluoro-4-(2-phenylethynyl)phenyl]-9a-methyl-2-(4-methylthiazol-2-yl)-4,9-dihydro-3H-pyrazino[1,2-c]pyrimidine-1,6,8-trione]: the Emax was 97% and the EC50 worked out at 48 nM.

Regarding `COc1ncc(N2CCN3C(=O)N(c4c(F)cc(C#Cc5ccccc5)cc4F)C(=O)C[C@@]3(C)C2=O)cn1` [Example 37, (9aS)-7-[2,6-difluoro-4-(2-phenylethynyl)phenyl]-2-(2-methoxypyrimidin-5-yl)-9a-methyl-4,9-dihydro-3H-pyrazino[1,2-c]pyrimidine-1,6,8-trione], the Emax stood at 90% and the EC50 stood at 55 nM.

On to `CC12CC(=O)N(c3c(F)cc(C#Cc4ccccc4)cc3F)C(=O)N1CCN(Cc1ccccc1Cl)C2=O` (racemic) [Example 87, (9aRS)-2-[(2-chlorophenyl)methyl]-7-[2,6-difluoro-4-(2-phenylethynyl)phenyl]-9a-methyl-4,9-dihydro-3H-pyrazino[1,2-c]pyrimidine-1,6,8-trione], for which the Emax turned out to be 131% and the EC50 amounted to 87 nM.

Consider `COC[C@@]12CC(=O)N(c3c(F)cc(C#Cc4ccccc4)cc3F)C(=O)N1CCN(c1cccnc1)C2=O` [Example 103, (9aR)-7-[2,6-difluoro-4-(2-phenylethynyl)phenyl]-9a-(methoxymethyl)-2-(3-pyridyl)-4,9-dihydro-3H-pyrazino[1,2-c]pyrimidine-1,6,8-trione], for which the Emax was 118% and the concentration giving a half-maximal response (EC50) was found to be 169 nM.

For the molecule `CC12CC(=O)N(c3c(F)cc(C#Cc4ccccc4)cc3F)C(=O)N1CCN(c1nccs1)C2=O` (racemic) [Example 52, (9aRS)-7-[2,6-difluoro-4-(2-phenylethynyl)phenyl]-9a-methyl-2-thiazol-2-yl-4,9-dihydro-3H-pyrazino[1,2-c]pyrimidine-1,6,8-trione], the Emax is 97% and the EC50 came to 113 nM.

Consider `CC12CC(=O)N(c3c(F)cc(C#Cc4ccccc4)cc3F)C(=O)N1CCN(c1cccnc1)C2=O` (racemic) [Example 6, (9aRS)-7-[2,6-difluoro-4-(2-phenylethynyl)phenyl]-9a-methyl-2-(3-pyridyl)-4,9-dihydro-3H-pyrazino[1,2-c]pyrimidine-1,6,8-trione], for which the Emax came out at 122% and the EC50 was 118 nM.

As for `Cn1nccc1N1CCN2C(=O)N(c3c(F)cc(C#Cc4ccccc4)cc3F)C(=O)CC2(C)C1=O` (racemic) [Example 64, (9aRS)-7-[2,6-difluoro-4-(2-phenylethynyl)phenyl]-9a-methyl-2-(2-methylpyrazol-3-yl)-4,9-dihydro-3H-pyrazino[1,2-c]pyrimidine-1,6,8-trione], the Emax turned out to be 155% and the EC50 stood at 125 nM.

As for `CC12CC(=O)N(c3c(F)cc(C#Cc4ccccc4)cc3F)C(=O)N1CCN(c1ccncc1)C2=O` (racemic) [Example 8, (9aRS)-7-[2,6-difluoro-4-(2-phenylethynyl)phenyl]-9a-methyl-2-(4-pyridyl)-4,9-dihydro-3H-pyrazino[1,2-c]pyrimidine-1,6,8-trione], the Emax was found to be 118% and the EC50 was 129 nM.

With `Cc1cnc(N2CCN3C(=O)N(c4c(F)cc(C#Cc5ccccc5)cc4F)C(=O)CC3(C)C2=O)s1` (racemic) [Example 53, (9aRS)-7-[2,6-difluoro-4-(2-phenylethynyl)phenyl]-9a-methyl-2-(5-methylthiazol-2-yl)-4,9-dihydro-3H-pyrazino[1,2-c]pyrimidine-1,6,8-trione], the Emax amounted to 100% and the EC50 was 88 nM.

Turning to `Cn1cc(CN2CCN3C(=O)N(c4c(F)cc(C#Cc5ccccc5)cc4F)C(=O)CC3(C)C2=O)cn1` (racemic) [Example 96, (9aRS)-7-[2,6-difluoro-4-(2-phenylethynyl)phenyl]-9a-methyl-2-[(1-methylpyrazol-4-yl)methyl]-4,9-dihydro-3H-pyrazino[1,2-c]pyrimidine-1,6,8-trione], the Emax is 151% and the EC50 turned out to be 214 nM.

For `CC12CC(=O)N(c3c(F)cc(C#Cc4ccccc4)cc3F)C(=O)N1CCN(c1cnccn1)C2=O` (racemic) [Example 32, (9aRS)-7-[2,6-difluoro-4-(2-phenylethynyl)phenyl]-9a-methyl-2-pyrazin-2-yl-4,9-dihydro-3H-pyrazino[1,2-c]pyrimidine-1,6,8-trione], the Emax worked out at 112% and the half-maximal effective concentration (EC50) came to 88 nM.

As a reminder, the EC50 is the concentration at which the effect is half-maximal.
